Measured values taken from patent US20190076555A1, “TUMOR TARGETING NANOAGENT FOR IMAGING AND FLUORESCENT GUIDED RESECTION OF TUMORS” (priority 2017, published 2019).
Ends that are not written are not given here.

Experiments:
[1] = Absorbance spectra of free and conjugated ICG (600-900 nm); assay type: physicochemical; conditions: PBS pH7.4
Procedure: Absorbance of free and conjugated ICG was measured within a wavelength range of 600-900 nm. Stock solution of free ICG was prepared in DMSO at a concentration of 25 mM and sample was diluted in PBS, pH7.4. FIGS. 3A-3J illustrate absorbance spectra of free and conjugated ICG.

U87 MG glioma cells = assay: Competition with binding of NIA to glioma cells by flow cytometry; set-up: species or system human; conditions: 5 μM NIA (100%) competed with 125 μM competitor
Procedure: FIG. 11C illustrates flow cytometry histogram for CTX (not fluorescent) competing with binding of NIA (content 5 μM CTXtot) at various concentrations of competing CTX. The following combinations were tested: PBS no ligand (solid line), NIA+125 μM CTX (dashed line), NIA+50 μM CTX (dotdashed line), NIA+5 μM (longdashed line), and NIA 5 μM (dash-twodotted line). […] The abscissa intercept indicates the maximum level of fluorescence decrease due to competition at extrapolated infinite concentrations of CTX.
The saturation curves in the insets were calculated as average fluorescence intensities as function of overall CTX, (CTXtot), concentrations. […] Each molecule of NIA contains on average 7.75 groups of CTX. […] Since the inhibitors are not fluorescence labeled, the inhibition would be indicated by the reduction of MFI if NIA is the competed ligand.

| Compound | maximum absorbance wavelength ([1]; high concentration 100 μM ICG) | maximum absorbance wavelength ([1]; lower concentration 3 μM ICG) | decrease in mean fluorescence intensity of NIA (U87 MG glioma cells) |
| --- | --- | --- | --- |
| CC1(C)C(/C=C/C=C/C=C/C=C2\N(CCCCS(=O)(=O)O)c3ccc4ccccc4c3C2(C)C)=[N+](CCCCS(=O)(=O)[O-])c2ccc3ccccc3c21 [free ICG, Indocyanine Green] | 695 nm | 780 nm | – |
| P/LLL(40%): polymalic acid with tri-leucine (40%), not fluorescence labelled competitor (Leu-Leu-Leu; not fully specified) | – | – | 41-46% |
